Experimental data: ChEMBL document CHEMBL5442219

Experiments:
Conditions in all cases: Compound concentration 10 µM
[1] = molecular target: D(2) dopamine receptor (Homo sapiens) (UniProt P14416)
Description: PDSP Primary Binding target: DRD2 - Compounds are tested at 10 uM concentration, plate are incubated at room temperature in the dark for 90 minutes. Reaction are stopped by vacuum filtration onto 0.3% polyethyleneimine soaked filter mats using Filtermate harvester. Scintilation cocktail is then melted onto microwave-dried filters on a hot plate and the radio activity is counted in Microbia counter.

[2] = molecular target: D(1A) dopamine receptor (Homo sapiens) (UniProt P21728)
Description: PDSP Primary Binding target: DRD1 - Compounds are tested at 10 uM concentration, plate are incubated at room temperature in the dark for 90 minutes. Reaction are stopped by vacuum filtration onto 0.3% polyethyleneimine soaked filter mats using Filtermate harvester. Scintilation cocktail is then melted onto microwave-dried filters on a hot plate and the radio activity is counted in Microbia counter.

[3] = molecular target: 5-hydroxytryptamine receptor 1E (Homo sapiens) (UniProt P28566)
Description: PDSP Primary Binding target: HTR1E - Compounds are tested at 10 uM concentration, plate are incubated at room temperature in the dark for 90 minutes. Reaction are stopped by vacuum filtration onto 0.3% polyethyleneimine soaked filter mats using Filtermate harvester. Scintilation cocktail is then melted onto microwave-dried filters on a hot plate and the radio activity is counted in Microbia counter.

[4] = molecular target: T1, Alpha-1A adrenergic receptor (Homo sapiens) (UniProt P35348)
T1 sequence (whole entry): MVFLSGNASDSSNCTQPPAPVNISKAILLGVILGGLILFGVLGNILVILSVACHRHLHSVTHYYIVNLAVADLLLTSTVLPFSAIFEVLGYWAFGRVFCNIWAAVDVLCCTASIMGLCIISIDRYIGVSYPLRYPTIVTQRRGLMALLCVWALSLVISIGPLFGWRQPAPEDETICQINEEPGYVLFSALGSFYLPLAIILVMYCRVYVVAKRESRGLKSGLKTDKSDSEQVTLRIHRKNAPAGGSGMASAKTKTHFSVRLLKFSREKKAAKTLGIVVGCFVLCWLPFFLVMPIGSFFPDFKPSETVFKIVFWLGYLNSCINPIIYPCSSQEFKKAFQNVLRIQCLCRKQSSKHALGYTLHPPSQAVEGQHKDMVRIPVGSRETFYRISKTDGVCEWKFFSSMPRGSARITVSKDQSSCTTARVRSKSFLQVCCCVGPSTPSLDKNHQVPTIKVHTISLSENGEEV
Description: PDSP Primary Binding target: ADRA1A - Compounds are tested at 10 uM concentration, plate are incubated at room temperature in the dark for 90 minutes. Reaction are stopped by vacuum filtration onto 0.3% polyethyleneimine soaked filter mats using Filtermate harvester. Scintilation cocktail is then melted onto microwave-dried filters on a hot plate and the radio activity is counted in Microbia counter.

[5] = molecular target: D(3) dopamine receptor (Homo sapiens) (UniProt P35462)
Sequence of D(3) dopamine receptor (Homo sapiens) (P35462 whole entry): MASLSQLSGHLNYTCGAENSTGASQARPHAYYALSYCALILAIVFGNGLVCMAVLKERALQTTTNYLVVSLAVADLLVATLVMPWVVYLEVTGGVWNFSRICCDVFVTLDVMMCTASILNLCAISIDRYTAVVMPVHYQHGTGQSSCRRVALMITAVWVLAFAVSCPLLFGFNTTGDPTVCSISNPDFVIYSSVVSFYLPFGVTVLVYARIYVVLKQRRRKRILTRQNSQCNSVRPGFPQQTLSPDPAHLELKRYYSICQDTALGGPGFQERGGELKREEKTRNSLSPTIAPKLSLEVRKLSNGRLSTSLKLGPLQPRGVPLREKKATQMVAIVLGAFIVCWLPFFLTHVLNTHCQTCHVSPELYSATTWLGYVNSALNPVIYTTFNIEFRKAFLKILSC
Description: PDSP Primary Binding target: DRD3 - Compounds are tested at 10 uM concentration, plate are incubated at room temperature in the dark for 90 minutes. Reaction are stopped by vacuum filtration onto 0.3% polyethyleneimine soaked filter mats using Filtermate harvester. Scintilation cocktail is then melted onto microwave-dried filters on a hot plate and the radio activity is counted in Microbia counter.

[6] = molecular target: T2, Muscarinic acetylcholine receptor M1 (Homo sapiens) (UniProt P11229)
T2 sequence (whole entry): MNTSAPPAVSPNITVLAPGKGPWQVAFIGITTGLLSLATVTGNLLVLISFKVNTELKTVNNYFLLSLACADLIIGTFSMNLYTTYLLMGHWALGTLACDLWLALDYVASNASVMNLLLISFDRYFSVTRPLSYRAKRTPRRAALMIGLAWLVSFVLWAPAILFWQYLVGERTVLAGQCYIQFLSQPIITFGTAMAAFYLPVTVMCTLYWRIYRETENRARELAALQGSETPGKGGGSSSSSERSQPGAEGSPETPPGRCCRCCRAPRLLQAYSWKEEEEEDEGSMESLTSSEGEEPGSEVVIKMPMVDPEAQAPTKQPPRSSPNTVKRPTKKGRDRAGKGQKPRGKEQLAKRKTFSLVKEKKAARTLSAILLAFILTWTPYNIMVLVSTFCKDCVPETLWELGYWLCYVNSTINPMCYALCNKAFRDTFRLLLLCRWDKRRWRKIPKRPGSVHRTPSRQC
Description: PDSP Primary Binding target: CHRM1 - Compounds are tested at 10 uM concentration, plate are incubated at room temperature in the dark for 90 minutes. Reaction are stopped by vacuum filtration onto 0.3% polyethyleneimine soaked filter mats using Filtermate harvester. Scintilation cocktail is then melted onto microwave-dried filters on a hot plate and the radio activity is counted in Microbia counter.

[7] = molecular target: T3, 5-hydroxytryptamine receptor 2C (Homo sapiens) (UniProt P28335)
T3 sequence (whole entry): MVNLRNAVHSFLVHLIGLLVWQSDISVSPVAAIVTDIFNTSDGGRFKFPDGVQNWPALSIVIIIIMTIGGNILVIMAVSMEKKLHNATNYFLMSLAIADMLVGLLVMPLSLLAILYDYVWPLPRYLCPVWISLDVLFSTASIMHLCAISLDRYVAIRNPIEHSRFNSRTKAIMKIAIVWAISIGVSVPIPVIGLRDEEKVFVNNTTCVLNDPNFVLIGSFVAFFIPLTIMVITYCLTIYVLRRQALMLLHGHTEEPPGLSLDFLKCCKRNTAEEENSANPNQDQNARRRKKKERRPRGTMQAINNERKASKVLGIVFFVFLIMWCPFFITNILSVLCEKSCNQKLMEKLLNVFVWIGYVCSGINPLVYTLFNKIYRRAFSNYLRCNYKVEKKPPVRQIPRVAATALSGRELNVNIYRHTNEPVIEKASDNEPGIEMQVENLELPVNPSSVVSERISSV
Description: PDSP Primary Binding target: HTR2C - Compounds are tested at 10 uM concentration, plate are incubated at room temperature in the dark for 90 minutes. Reaction are stopped by vacuum filtration onto 0.3% polyethyleneimine soaked filter mats using Filtermate harvester. Scintilation cocktail is then melted onto microwave-dried filters on a hot plate and the radio activity is counted in Microbia counter.

[8] = molecular target: Histamine H2 receptor (Homo sapiens) (UniProt P25021)
Sequence of Histamine H2 receptor (Homo sapiens) (P25021 whole entry): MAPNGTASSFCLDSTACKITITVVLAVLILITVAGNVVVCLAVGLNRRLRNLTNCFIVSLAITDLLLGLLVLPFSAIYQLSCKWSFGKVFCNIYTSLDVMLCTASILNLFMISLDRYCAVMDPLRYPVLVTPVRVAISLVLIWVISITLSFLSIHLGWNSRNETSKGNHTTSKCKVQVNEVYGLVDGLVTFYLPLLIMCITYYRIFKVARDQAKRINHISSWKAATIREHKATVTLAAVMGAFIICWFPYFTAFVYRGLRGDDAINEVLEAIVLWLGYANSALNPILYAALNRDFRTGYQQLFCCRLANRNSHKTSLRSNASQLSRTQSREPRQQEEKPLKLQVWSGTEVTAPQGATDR
Description: PDSP Primary Binding target: HRH2 - Compounds are tested at 10 uM concentration, plate are incubated at room temperature in the dark for 90 minutes. Reaction are stopped by vacuum filtration onto 0.3% polyethyleneimine soaked filter mats using Filtermate harvester. Scintilation cocktail is then melted onto microwave-dried filters on a hot plate and the radio activity is counted in Microbia counter.

[9] = molecular target: Sigma intracellular receptor 2 (Homo sapiens) (UniProt Q5BJF2)
Sequence of Sigma intracellular receptor 2 (Homo sapiens) (Q5BJF2 whole entry): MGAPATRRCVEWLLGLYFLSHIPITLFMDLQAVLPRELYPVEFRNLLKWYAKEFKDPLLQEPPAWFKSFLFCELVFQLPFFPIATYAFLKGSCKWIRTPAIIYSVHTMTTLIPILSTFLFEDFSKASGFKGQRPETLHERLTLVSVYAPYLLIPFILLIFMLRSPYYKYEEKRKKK
Description: PDSP Primary Binding target: TMEM97 - Compounds are tested at 10 uM concentration, plate are incubated at room temperature in the dark for 90 minutes. Reaction are stopped by vacuum filtration onto 0.3% polyethyleneimine soaked filter mats using Filtermate harvester. Scintilation cocktail is then melted onto microwave-dried filters on a hot plate and the radio activity is counted in Microbia counter.

[10] = molecular target: T4, Muscarinic acetylcholine receptor M2 (Homo sapiens) (UniProt P08172)
T4 sequence (whole entry): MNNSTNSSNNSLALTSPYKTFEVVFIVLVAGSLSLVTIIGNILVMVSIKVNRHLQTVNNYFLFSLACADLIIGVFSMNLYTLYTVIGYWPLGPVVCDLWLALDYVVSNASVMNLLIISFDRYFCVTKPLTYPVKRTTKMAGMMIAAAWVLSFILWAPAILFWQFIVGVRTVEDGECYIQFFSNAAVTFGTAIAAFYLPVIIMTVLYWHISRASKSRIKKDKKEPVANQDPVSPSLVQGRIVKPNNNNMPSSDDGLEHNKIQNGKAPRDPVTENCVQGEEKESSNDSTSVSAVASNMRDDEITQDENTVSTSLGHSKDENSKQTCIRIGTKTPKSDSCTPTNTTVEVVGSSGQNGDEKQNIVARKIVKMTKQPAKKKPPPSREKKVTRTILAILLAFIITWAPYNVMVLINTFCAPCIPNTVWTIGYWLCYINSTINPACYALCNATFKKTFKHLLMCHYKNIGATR
Description: PDSP Primary Binding target: CHRM2 - Compounds are tested at 10 uM concentration, plate are incubated at room temperature in the dark for 90 minutes. Reaction are stopped by vacuum filtration onto 0.3% polyethyleneimine soaked filter mats using Filtermate harvester. Scintilation cocktail is then melted onto microwave-dried filters on a hot plate and the radio activity is counted in Microbia counter.

[11] = molecular target: Muscarinic acetylcholine receptor M3 (Homo sapiens) (UniProt P20309)
Sequence of Muscarinic acetylcholine receptor M3 (Homo sapiens) (P20309 whole entry, looked up): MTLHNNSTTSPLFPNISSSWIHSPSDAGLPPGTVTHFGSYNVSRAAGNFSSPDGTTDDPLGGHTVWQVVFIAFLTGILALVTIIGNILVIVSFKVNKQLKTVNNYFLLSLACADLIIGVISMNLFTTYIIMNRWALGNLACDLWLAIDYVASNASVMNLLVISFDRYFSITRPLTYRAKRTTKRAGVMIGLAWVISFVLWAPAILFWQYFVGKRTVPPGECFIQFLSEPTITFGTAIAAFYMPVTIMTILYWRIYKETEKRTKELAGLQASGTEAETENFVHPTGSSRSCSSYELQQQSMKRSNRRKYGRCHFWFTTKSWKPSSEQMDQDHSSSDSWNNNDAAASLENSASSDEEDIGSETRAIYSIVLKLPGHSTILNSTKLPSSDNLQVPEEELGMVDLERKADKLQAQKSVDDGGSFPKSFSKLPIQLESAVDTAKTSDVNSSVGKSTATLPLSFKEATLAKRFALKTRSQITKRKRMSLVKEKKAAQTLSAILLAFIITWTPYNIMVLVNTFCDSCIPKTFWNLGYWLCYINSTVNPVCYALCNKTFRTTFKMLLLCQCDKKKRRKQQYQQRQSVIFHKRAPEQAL
Description: PDSP Primary Binding target: CHRM3 - Compounds are tested at 10 uM concentration, plate are incubated at room temperature in the dark for 90 minutes. Reaction are stopped by vacuum filtration onto 0.3% polyethyleneimine soaked filter mats using Filtermate harvester. Scintilation cocktail is then melted onto microwave-dried filters on a hot plate and the radio activity is counted in Microbia counter.

[12] = molecular target: Histamine H3 receptor (Homo sapiens) (UniProt Q9Y5N1)
Sequence of Histamine H3 receptor (Homo sapiens) (Q9Y5N1 whole entry): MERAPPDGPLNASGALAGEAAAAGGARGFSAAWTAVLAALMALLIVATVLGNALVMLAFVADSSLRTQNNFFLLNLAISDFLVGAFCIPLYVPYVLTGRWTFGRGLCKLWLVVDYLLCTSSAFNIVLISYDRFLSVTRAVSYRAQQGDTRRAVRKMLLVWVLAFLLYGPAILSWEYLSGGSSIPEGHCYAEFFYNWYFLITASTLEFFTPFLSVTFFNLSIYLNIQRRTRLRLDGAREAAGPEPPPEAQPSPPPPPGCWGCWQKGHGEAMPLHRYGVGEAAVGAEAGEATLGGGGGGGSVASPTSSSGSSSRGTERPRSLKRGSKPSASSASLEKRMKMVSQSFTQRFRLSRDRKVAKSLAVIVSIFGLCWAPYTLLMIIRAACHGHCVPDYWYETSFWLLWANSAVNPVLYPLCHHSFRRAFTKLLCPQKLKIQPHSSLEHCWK
Description: PDSP Primary Binding target: HRH3 - Compounds are tested at 10 uM concentration, plate are incubated at room temperature in the dark for 90 minutes. Reaction are stopped by vacuum filtration onto 0.3% polyethyleneimine soaked filter mats using Filtermate harvester. Scintilation cocktail is then melted onto microwave-dried filters on a hot plate and the radio activity is counted in Microbia counter.

[13] = molecular target: T5, Alpha-1D adrenergic receptor (Homo sapiens) (UniProt P25100)
T5 sequence (whole entry): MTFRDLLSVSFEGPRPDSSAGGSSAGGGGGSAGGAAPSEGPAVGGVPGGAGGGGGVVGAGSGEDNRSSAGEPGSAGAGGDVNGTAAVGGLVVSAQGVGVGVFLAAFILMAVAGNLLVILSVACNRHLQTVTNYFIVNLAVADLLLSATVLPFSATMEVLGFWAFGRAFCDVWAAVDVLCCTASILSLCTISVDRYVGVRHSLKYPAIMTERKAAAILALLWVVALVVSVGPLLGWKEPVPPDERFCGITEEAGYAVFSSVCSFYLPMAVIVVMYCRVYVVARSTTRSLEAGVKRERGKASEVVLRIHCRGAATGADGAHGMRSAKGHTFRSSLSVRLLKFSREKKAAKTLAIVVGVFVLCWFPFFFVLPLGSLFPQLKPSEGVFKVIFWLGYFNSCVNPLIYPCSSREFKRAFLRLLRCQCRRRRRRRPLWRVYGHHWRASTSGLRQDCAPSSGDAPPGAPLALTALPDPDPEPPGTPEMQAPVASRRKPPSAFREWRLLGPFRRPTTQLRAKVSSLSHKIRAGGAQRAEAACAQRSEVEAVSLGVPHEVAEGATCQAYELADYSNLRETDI
Description: PDSP Primary Binding target: ADRA1D - Compounds are tested at 10 uM concentration, plate are incubated at room temperature in the dark for 90 minutes. Reaction are stopped by vacuum filtration onto 0.3% polyethyleneimine soaked filter mats using Filtermate harvester. Scintilation cocktail is then melted onto microwave-dried filters on a hot plate and the radio activity is counted in Microbia counter.

Sequence of D(2) dopamine receptor (Homo sapiens) (P14416 whole entry): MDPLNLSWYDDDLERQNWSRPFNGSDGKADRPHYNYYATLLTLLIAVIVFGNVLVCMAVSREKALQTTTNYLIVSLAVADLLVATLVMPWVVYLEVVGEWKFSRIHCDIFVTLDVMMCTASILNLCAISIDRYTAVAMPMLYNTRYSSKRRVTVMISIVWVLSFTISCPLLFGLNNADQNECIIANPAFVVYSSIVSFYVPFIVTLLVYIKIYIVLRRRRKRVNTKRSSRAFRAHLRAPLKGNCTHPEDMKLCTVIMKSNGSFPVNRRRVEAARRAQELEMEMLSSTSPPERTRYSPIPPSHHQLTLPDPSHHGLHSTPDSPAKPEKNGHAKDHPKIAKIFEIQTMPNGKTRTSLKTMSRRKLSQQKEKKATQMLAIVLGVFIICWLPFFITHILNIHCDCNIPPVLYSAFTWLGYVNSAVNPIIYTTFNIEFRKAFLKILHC
Sequence of D(1A) dopamine receptor (Homo sapiens) (P21728 whole entry): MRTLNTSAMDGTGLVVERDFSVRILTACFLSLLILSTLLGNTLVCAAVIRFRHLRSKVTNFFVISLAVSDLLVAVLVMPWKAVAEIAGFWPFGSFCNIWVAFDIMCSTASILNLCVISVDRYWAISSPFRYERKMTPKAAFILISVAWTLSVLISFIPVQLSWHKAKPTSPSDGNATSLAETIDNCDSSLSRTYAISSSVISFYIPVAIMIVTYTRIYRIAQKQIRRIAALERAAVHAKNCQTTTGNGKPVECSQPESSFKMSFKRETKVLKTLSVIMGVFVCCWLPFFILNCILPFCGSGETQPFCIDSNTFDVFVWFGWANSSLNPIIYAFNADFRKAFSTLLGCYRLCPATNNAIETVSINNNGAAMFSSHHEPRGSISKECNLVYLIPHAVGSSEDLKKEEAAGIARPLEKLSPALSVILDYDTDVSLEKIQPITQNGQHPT
Sequence of 5-hydroxytryptamine receptor 1E (Homo sapiens) (P28566 whole entry): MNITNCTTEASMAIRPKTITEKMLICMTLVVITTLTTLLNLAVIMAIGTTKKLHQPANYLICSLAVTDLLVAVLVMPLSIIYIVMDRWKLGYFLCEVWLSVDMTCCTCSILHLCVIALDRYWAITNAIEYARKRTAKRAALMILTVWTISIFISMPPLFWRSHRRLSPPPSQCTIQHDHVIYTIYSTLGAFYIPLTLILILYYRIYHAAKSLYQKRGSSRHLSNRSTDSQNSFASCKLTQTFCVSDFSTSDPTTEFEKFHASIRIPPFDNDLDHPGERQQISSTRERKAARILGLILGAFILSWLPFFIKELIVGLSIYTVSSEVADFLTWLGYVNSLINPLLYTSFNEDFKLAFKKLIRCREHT

| SMILES | inhibition [1] [%] | inhibition [2] [%] | inhibition [3] [%] | inhibition [4] [%] | inhibition [5] [%] | inhibition [6] [%] | inhibition [7] [%] | inhibition [8] [%] | inhibition [9] [%] | inhibition [10] [%] | inhibition [11] [%] | inhibition [12] [%] | inhibition [13] [%] |
| --- | --- | --- | --- | --- | --- | --- | --- | --- | --- | --- | --- | --- | --- |
| Cc1cc(C(=O)N2Cc3cnn(C)c3Nc3ccccc32)ccc1CNC(=O)N1CCC[C@H]1C(=S)N1CCCN(C)CC1 | 5.64 | -3.37 | 4.73 | -5.86 | 87.3 | 49.6 | -8.65 | 46.9 | -1.48 | 68.4 | 65.2 | – | – |
| COc1cc(-n2cnc3cc(-c4ccc(Cl)cc4)sc3c2=O)ccc1OCCN1CCCC1 | 30.2 | 11.7 | – | 37.3 | 68.5 | 84.1 | 79.9 | 18.7 | 94.7 | 71.5 | 56.6 | 88.9 | 53.1 |
| COc1ccc(NS(=O)(=O)c2sc3ccc(Cl)cc3c2C)cc1N1CCNCC1 | 37.4 | 16.9 | 13.8 | 39.7 | 91 | -7.39 | 51.7 | 13.5 | 81.8 | 17 | 3.19 | 16.6 | 33 |
| Cc1csc2c(N[C@@H](C)CN3CCN(S(=O)(=O)c4ccc(Cl)c(Cl)c4)CC3)ncnc12 | 32.8 | -2.84 | -3.07 | -5.96 | 67.4 | 6.35 | – | 45.2 | 73.2 | 1.88 | -6 | 2.97 | -3.91 |
| Cc1c(OCc2cccc(-c3ccc(C(=O)O)cc3)c2)cc2c(c1C)C(=O)C(C1CCCC1)C2 (configuration not stated) | -2.54 | -5.51 | 6.04 | 48.4 | 33.5 | -9.01 | 6.16 | 25.4 | -3.24 | 32.3 | 34.5 | 31.1 | 60 |
| CCCCC#Cc1nc(NC)c2ncn([C@@H]3O[C@H](CO)[C@@H](O)[C@H]3O)c2n1 | -5.45 | 0.72 | 18.8 | -3.3 | 32.7 | -6.77 | 17.8 | 16 | 8.59 | 22.8 | 13.6 | 7.95 | -1.99 |
| Cc1nc(C(=O)N2CCC[C@H]2Cc2nnc(-c3ccccc3)o2)c(-c2ccccc2F)s1 | 14.6 | 7.87 | -8.85 | 1.08 | 45 | -9.02 | 4.37 | -4.23 | 12.9 | 71.2 | -8.01 | 22.7 | 26.4 |
| CCOC(=O)c1c(C)[nH]c2ccc3c(c12)CN1CCc2cc(OC)ccc2C1O3 (configuration not stated) | 4.19 | 1.81 | -6.16 | 41.3 | 44.2 | 11.9 | – | 57.5 | 36.3 | 22.6 | 69.2 | -2.82 | 36.5 |
| CCc1ccc(OCc2ccccc2C(=O)Nc2ccc3nc(C)cc(N)c3c2)cc1 | 36.2 | 47.8 | 9.69 | 45.6 | 33.9 | 74.4 | 91.2 | 46.7 | 91.7 | 11.9 | 11.1 | – | 57.8 |
| C[C@H](Cc1cc2c(c(C(N)=O)c1)N(CCCO)CC2)NCCOc1ccccc1OCC(F)(F)F | 55.5 | -5.84 | -4.65 | 90.7 | 94.1 | 20.8 | – | 34.6 | 17.6 | -1.87 | -2.64 | – | 86.5 |
| C[C@H](NC[C@H](O)CP(=O)(O)CC1CCCCC1)c1ccc(Cl)c(Cl)c1 | 10.4 | – | -8.21 | 1.74 | 19.5 | 8.07 | – | 26 | 26.7 | 40.4 | -3.76 | 17.5 | 8.86 |
| COc1ccc(OC(F)(F)F)cc1CN[C@H]1CCCN[C@H]1c1ccccc1 | 16.6 | 4.84 | 12.4 | 31.1 | 36.3 | 13.7 | 58.5 | 42.3 | 90.5 | 12.9 | -8.99 | – | 15.1 |
| CCCCCCCCCCCCCCCCOC[C@H](COP(=O)([O-])OCC[N+](C)(C)C)OC(C)=O | 7.75 | – | 11.7 | 34.5 | 72.5 | 49.9 | 67.9 | 4.45 | 57.9 | -4.25 | 19.2 | -0.67 | 50.7 |
